Experimental data taken from US12570666B2, “Furoindazole derivatives” (Bayer Aktiengesellschaft, priority 2019, dated 2026).

Biological target: T1, human GPR84 receptor (Homo sapiens, UniProt Q9NQS5)
T1 construct: frozen aliquots prepared by acCELLerate; host or cells: CHO-K1
Experiment: cAMP HTRF assay for identification of cellular GPR84 antagonists
Format: cell-based
Settings: CHO-K1 cells stably expressing human GPR84; Forskolin + agonist 6-OAU (EC80); average or median values
Outline: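 IC50 came from 4-parameter fits over 20 μM–0.07 nM (11 points, duplicate), normalized between DMSO (0%) and agonist-free (100% inhibition) wells. Readout: cAMP-d2/Eu-cryptate HTRF in hGPR84 CHO-K1 cells given forskolin plus agonist, compound preincubated 30 min at room temperature.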

T1 sequence (Q9NQS5 whole entry): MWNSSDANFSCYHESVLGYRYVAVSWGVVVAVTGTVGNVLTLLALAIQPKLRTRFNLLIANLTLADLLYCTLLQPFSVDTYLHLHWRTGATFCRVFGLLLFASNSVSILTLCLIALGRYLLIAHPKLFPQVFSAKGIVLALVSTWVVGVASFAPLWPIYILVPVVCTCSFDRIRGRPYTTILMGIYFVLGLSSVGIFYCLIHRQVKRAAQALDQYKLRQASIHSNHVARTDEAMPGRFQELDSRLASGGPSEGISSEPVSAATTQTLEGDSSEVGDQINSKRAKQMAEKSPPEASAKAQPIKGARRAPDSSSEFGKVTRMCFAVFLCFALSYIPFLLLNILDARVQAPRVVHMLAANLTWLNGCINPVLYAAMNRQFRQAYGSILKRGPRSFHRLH

IC50 [µM]	Compound
0.016	C[C@@H]1Cc2oc(C(=O)NC[C@@H]3CCCO3)c(C(F)(F)F)c2-c2nn(C[C@H]3COCCO3)cc21 (single isomer, unassigned) [Example 255-2, (4R or 4S)-2-{[(2S)-1,4-dioxan-2-yl]methyl}-4-methyl-N-{[(2S)-oxolan-2-yl]methyl}-8-(trifluoromethyl)-4,5-dihydro-2H-furo[2,3-g]indazole-7-carboxamide]
1.12	Cc1c(C(=O)NC[C@@H]2CCCO2)oc2c1-c1nn(Cc3ccc(C#N)cn3)cc1CC2 [Example 319, 2-[(5-cyanopyridin-2-yl)methyl]-8-methyl-N-{[(2S)-oxolan-2-yl]methyl}-4,5-dihydro-2H-furo[2,3-g]indazole-7-carboxamide]
0.009	Cc1ccc(Cn2cc3c(n2)-c2c(oc(C(=O)NC[C@@H]4COCCO4)c2C(F)(F)F)CC3C)cn1 (mixture of isomers) [Example 252, (4±)-N-{I(2R)-1,4-dioxan-2-yl]methyl)-4-methyl-2-[(6-methylpyridin-3-yl)methyl]-8-(trifluoromethyl)-4,5-dihydro-2H-furo[2,3-g]indazole-7-carboxamide]
0.238	Cc1c(C(=O)NC[C@@H]2COCCO2)oc2c1-c1nn(C[C@H]3COCCO3)cc1C(C(F)(F)F)C2 (mixture of isomers) [Example 265, (4±)-N-{[(2R)-1,4-dioxan-2-yl]methyl}-2-{[(2S)-1,4-dioxan-2-yl]methyl}-8-methyl-4-(trifluoromethyl)-4,5-dihydro-2H-furo[2,3-g]indazole-7-carboxamide]
1.6	O=C(NCCc1c[nH]cn1)c1oc2c(c1C(F)(F)F)-c1nn(C[C@H]3COCCO3)cc1CC2 [Example 235, 2-[(2S)-1,4-Dioxan-2-ylmethyl]-N-[2-(1 H-imidazol-4-yl)ethyl]-8-(trifluormethyl)-4,5-dihydro-2H-furo[2,3-g]indazol-7-carboxamide]
0.012	CC1(C)CC[C@H](CNC(=O)c2oc3c(c2C(F)(F)F)-c2nn(C[C@H]4COCCO4)cc2CC3)O1 (single isomer, unassigned) [Example 223-1, N-{[(2R or 2S)-5,5-dimethyloxolan-2-yl]methyl}-2-{[(2S)-1,4-dioxan-2-yl]methyl}-8-(trifluoromethyl)-4,5-dihydro-2H-furo[2,3-g]indazole-7-carboxamide]
0.024	C[C@@H]1Cc2oc(C(=O)NCc3cnccn3)c(C(F)(F)F)c2-c2nn(C[C@H]3COCCO3)cc21 (single isomer, unassigned) [Example 260, (4R or 4S)-2-{[(2S)-1,4-dioxan-2-yl]methyl}-4-methyl-N-[(pyrazin-2-yl)methyl]-8-(trifluoromethyl)-4,5-dihydro-2H-furo[2,3-g]indazole-7-carboxamide]
0.016	Cc1ccc(Cn2cc3c(n2)-c2c(oc(C(=O)NC[C@@H]4COCCO4)c2C)CC32CC2)cn1 [Example 210]
0.075	Cc1c(C(=O)NC[C@@H]2COCCO2)oc2c1-c1nn(Cc3ccccn3)cc1C(C)C2 (mixture of isomers) [Example 246, (4±)-N-{[(2R)-1,4-dioxan-2-yl]methyl}-4,8-dimethyl-2-[(pyridin-2-yl)methyl]-4,5-dihydro-2H-furo[2,3-g]indazole-7-carboxamide]

The remaining lines, values behind:

Compound	IC50 [µM]
O=C(NC[C@@H]1CCCO1)c1oc2c(c1C(F)(F)F)-c1nn(C[C@H]3COCCO3)cc1C1(CC1)C2 [Example 168, 2′-[(2S)-1,4-dioxan-2-ylmethyl]-N-[(2S)-tetrahydrofuran-2-ylmethyl]-8′-(trifluoromethyl)-2′,5′-dihydrospiro[cyclopropane-1,4′-furo[2,3-g]indazole]-7′-carboxamide]	0.01
Cc1c(C(=O)NC[C@@H]2COCCO2)oc2c1-c1nn(CC3COC3)cc1CC2 [Example 92, N-[(2R)-1,4-dioxan-2-ylmethyl]-8-methyl-2-(oxetan-3-ylmethyl)-4,5-dihydro-2H-furo[2,3-g]indazole-7-carboxamide]	0.13
Cc1cccnc1Cn1cc2c(n1)-c1c(oc(C(=O)NC[C@@H]3COCCO3)c1C)CC2 [Example 63, N-[(2R)-1,4-dioxan-2-ylmethyl]-8-methyl-2-[(3-methylpyridin-2-yl)methyl]-4,5-dihydro-2H-furo[2,3-g]indazole-7-carboxamide]	0.06
Cc1c(C(=O)NC[C@@H]2CCCO2)oc2c1-c1nn(CC3(F)CN(C(=O)OCc4ccccc4)C3)cc1CC2 [Example 155, benzyl 3-fluoro-3-[(8-methyl-7-{[(2S)-tetrahydrofuran-2-ylmethyl]carbamoyl}-4,5-dihydro-2H-furo[2,3-g]indazol-2-yl)methyl]azetidine-1-carboxylate]	0.013
Cc1c(C(=O)NC[C@@H]2CCCO2)oc2c1-c1nn(CC3CNC3)cc1CC2 [Example 158, 2-(azetidin-3-ylmethyl)-8-methyl-N-[(2S)-tetrahydrofuran-2-ylmethyl]-4,5-dihydro-2H-furo[2,3-g]indazole-7-carboxamide]	1.55
Cc1c(C(=O)NC[C@@H]2CCCO2)oc2c1-c1nn(Cc3ccccn3)cc1C1(CC1)C2 [Example 149]	0.01
CC(=O)N1CC(F)(Cn2cc3c(n2)-c2c(oc(C(=O)NC[C@@H]4CCCO4)c2C)CC3)C1 [Example 165, 2-[(1-acetyl-3-fluoroazetidin-3-yl)methyl]-8-methyl-N-[(2S)-tetrahydrofuran-2-ylmethyl]-4,5-dihydro-2H-furo[2,3-g]indazole-7-carboxamide]	0.11
Cc1c(C(=O)NCC2CCC(=O)O2)oc2c1-c1nn(Cc3ccccn3)cc1CC2 (single isomer, unassigned) [Example 39-2]	7.05
Cc1c(C(=O)NCc2ncon2)oc2c1-c1nn(Cc3ccccn3)cc1CC2 [Example 5]	1.41
Cc1cc(Cn2cc3c(n2)-c2c(oc(C(=O)NC[C@@H]4CCCO4)c2C)CC3)ccn1 [Example 79, 8-methyl-2-[(2-methylpyridin-4-yl)methyl]-N-[(2S)-tetrahydrofuran-2-ylmethyl]-4,5-dihydro-2H-furo[2,3-g]indazole-7-carboxamide]	0.058
Cc1c(C(=O)NC[C@@H]2COCCO2)oc2c1-c1nn(CC3CN(C(=O)OC(C)(C)C)C3)cc1CC2 [Example 110, tert-butyl 3-[(7-{[(2R)-1,4-dioxan-2-ylmethyl]carbamoyl}-8-methyl-4,5-dihydro-2H-furo[2,3-g]indazol-2-yl)methyl]azetidine-1-carboxylate]	0.01
Cc1c(C(=O)NC[C@@H]2COCCO2)oc2c1-c1nn(C[C@@H]3CCO3)cc1CC2 [Example 100, N-[(2R)-1,4-dioxan-2-ylmethyl]-8-methyl-2-[(2S)-oxetan-2-ylmethyl]-4,5-dihydro-2H-furo[2,3-g]indazole-7-carboxamide]	0.31
Cc1ccc(Cn2cc3c(n2)-c2c(oc(C(=O)NC[C@@H]4CCCO4)c2C)CC32CCC2)nc1 [Example 203]	0.022
Cc1c(C(=O)NC[C@@H]2CCCO2)oc2c1-c1nn(CC3CCOCC3)cc1CC2 [Example 189]	0.109
Cc1c(C(=O)NCCc2ccccc2)oc2c1-c1nn(Cc3ccccn3)cc1CC2 [Example 42, 8-methyl-N-(2-phenylethyl)-2-(pyridin-2-ylmethyl)-4,5-dihydro-2H-furo[2,3-g]indazole-7-carboxamide]	1.53
